In PMC10364322, “Evaluation of chronic drug-induced electrophysiological and cytotoxic effects using human-induced pluripotent stem cell-derived cardiomyocytes (hiPSC-CMs)” (Frontiers in Pharmacology, 2023):
Read-outs that look alike come from different tables or passages of the source.

System: hiPSC-CMs (iCell-Cardiomyocytes^2)
Procedure, shortened: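 Monolayers of hiPSC-CMs on fibronectin-coated MEA plates, 50 K/well, kept at 37°C, 5% CO2; compounds added in 0.1% final DMSO after 5-min baseline. Field potential and impedance parameters expressed as mean ± SD percent change from baseline; arrhythmic events noted; cytotoxicity fluorescence normalized to DMSO, Kruskal-Wallis.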

COc1nc(N)nc2c1ncn2[C@@H]1O[C@H](COP(=O)(N[C@@H](C)C(=O)OCC(C)(C)C)Oc2cccc3ccccc23)[C@@H](O)[C@@]1(C)O (stereo partly shown) [BMS-986094]
BR (beating rate), % change from baseline (0.3 µM, 2h): 5±3%
Beating below threshold, number of observations/total well numbers (0.3 µM, 2h): 0/5
Cessation of beating, number of observations/total well numbers (0.3 µM, 2h): 0/5
EAD, number of observations/total well numbers (0.3 µM, 2h): 0/5
FPD (field-potential duration), % change from baseline (0.3 µM, 2h): 0.5±1%
FPDc (field-potential duration corrected by beat-rate), % change from baseline (0.3 µM, 2h): 2.1±1.1%
Flat T-wave-like, number of observations/total well numbers (0.3 µM, 2h): 0/5
BR (beating rate), % change from baseline (0.3 µM, 24h): 8±3%
Beating below threshold, number of observations/total well numbers (0.3 µM, 24h): 0/5
Cessation of beating, number of observations/total well numbers (0.3 µM, 24h): 0/5
EAD, number of observations/total well numbers (0.3 µM, 24h): 0/5
FPD (field-potential duration), % change from baseline (0.3 µM, 24h): -5.3±4.1%
FPDc (field-potential duration corrected by beat-rate), % change from baseline (0.3 µM, 24h): -2.7±3.8%
Flat T-wave-like, number of observations/total well numbers (0.3 µM, 24h): 0/5
BR (beating rate), % change from baseline (0.3 µM, 48h): 14±5%
Beating below threshold, number of observations/total well numbers (0.3 µM, 48h): 0/5
Cessation of beating, number of observations/total well numbers (0.3 µM, 48h): 0/5
EAD, number of observations/total well numbers (0.3 µM, 48h): 0/5
FPD (field-potential duration), % change from baseline (0.3 µM, 48h): -12.4±4.7%
FPDc (field-potential duration corrected by beat-rate), % change from baseline (0.3 µM, 48h): -8.4±4.1%
Flat T-wave-like, number of observations/total well numbers (0.3 µM, 48h): 0/5
BR (beating rate), % change from baseline (0.3 µM, 72h): 22±3 %
Beating below threshold, number of observations/total well numbers (0.3 µM, 72h): 0/5
Cessation of beating, number of observations/total well numbers (0.3 µM, 72h): 0/5
EAD, number of observations/total well numbers (0.3 µM, 72h): 0/5
FPD (field-potential duration), % change from baseline (0.3 µM, 72h): -17.3±3.6 %
FPDc (field-potential duration corrected by beat-rate), % change from baseline (0.3 µM, 72h): -11.6±3.5 %
Flat T-wave-like, number of observations/total well numbers (0.3 µM, 72h): 0/5
BR (beating rate), % change from baseline (0.3 µM, 96h): 30±11 %
Beating below threshold, number of observations/total well numbers (0.3 µM, 96h): 0/5
Cessation of beating, number of observations/total well numbers (0.3 µM, 96h): 0/5
EAD, number of observations/total well numbers (0.3 µM, 96h): 0/5
FPD (field-potential duration), % change from baseline (0.3 µM, 96h): -20.4±2.9 %
FPDc (field-potential duration corrected by beat-rate), % change from baseline (0.3 µM, 96h): -14.3±1.9 %
Flat T-wave-like, number of observations/total well numbers (0.3 µM, 96h): 1/5
BR (beating rate), % change from baseline (1 µM, 2h): 6±2%
Beating below threshold, number of observations/total well numbers (1 µM, 2h): 0/5
Cessation of beating, number of observations/total well numbers (1 µM, 2h): 0/5
EAD, number of observations/total well numbers (1 µM, 2h): 0/5
FPD (field-potential duration), % change from baseline (1 µM, 2h): -3.6±2.3%
FPDc (field-potential duration corrected by beat-rate), % change from baseline (1 µM, 2h): -1.8±2.1%
Flat T-wave-like, number of observations/total well numbers (1 µM, 2h): 1/5
BR (beating rate), % change from baseline (1 µM, 24h): 17±5%
Beating below threshold, number of observations/total well numbers (1 µM, 24h): 0/5
Cessation of beating, number of observations/total well numbers (1 µM, 24h): 0/5
EAD, number of observations/total well numbers (1 µM, 24h): 0/5
FPD (field-potential duration), % change from baseline (1 µM, 24h): -10.7±2.3 %
FPDc (field-potential duration corrected by beat-rate), % change from baseline (1 µM, 24h): -6±2.7%
Flat T-wave-like, number of observations/total well numbers (1 µM, 24h): 0/5
BR (beating rate), % change from baseline (1 µM, 48h): 12±3%
Beating below threshold, number of observations/total well numbers (1 µM, 48h): 0/5
Cessation of beating, number of observations/total well numbers (1 µM, 48h): 0/5
EAD, number of observations/total well numbers (1 µM, 48h): 0/5
FPD (field-potential duration), % change from baseline (1 µM, 48h): -5.8±3 %
FPDc (field-potential duration corrected by beat-rate), % change from baseline (1 µM, 48h): -2.5±2.1 %
Flat T-wave-like, number of observations/total well numbers (1 µM, 48h): 3/5
BR (beating rate), % change from baseline (1 µM, 72h): 17±6 %
Beating below threshold, number of observations/total well numbers (1 µM, 72h): 0/5
Cessation of beating, number of observations/total well numbers (1 µM, 72h): 0/5
EAD, number of observations/total well numbers (1 µM, 72h): 0/5
FPD (field-potential duration), % change from baseline (1 µM, 72h): -7.5±0 %
FPDc (field-potential duration corrected by beat-rate), % change from baseline (1 µM, 72h): -2.3±0%
Flat T-wave-like, number of observations/total well numbers (1 µM, 72h): 4/5
BR (beating rate), % change from baseline (1 µM, 96h): 14±8 %
Beating below threshold, number of observations/total well numbers (1 µM, 96h): 0/5
Cessation of beating, number of observations/total well numbers (1 µM, 96h): 0/5
EAD, number of observations/total well numbers (1 µM, 96h): 0/5
FPD (field-potential duration), % change from baseline (1 µM, 96h): -7.9±0 %
FPDc (field-potential duration corrected by beat-rate), % change from baseline (1 µM, 96h): -5.5±0 %
Flat T-wave-like, number of observations/total well numbers (1 µM, 96h): 4/5
BR (beating rate), % change from baseline (3 µM, 72h): 12±6 %
Beating below threshold, number of observations/total well numbers (3 µM, 72h): 0/5
Cessation of beating, number of observations/total well numbers (3 µM, 72h): 0/5
EAD, number of observations/total well numbers (3 µM, 72h): 0/5
Flat T-wave-like, number of observations/total well numbers (3 µM, 72h): 5/5
BR (beating rate), % change from baseline (3 µM, 96h): 20±12 %
Beating below threshold, number of observations/total well numbers (3 µM, 96h): 0/5
Cessation of beating, number of observations/total well numbers (3 µM, 96h): 1/5
EAD, number of observations/total well numbers (3 µM, 96h): 0/5
Flat T-wave-like, number of observations/total well numbers (3 µM, 96h): 4/5
BR (beating rate), % change from baseline (3 µM, 2h): 7±1%
Beating below threshold, number of observations/total well numbers (3 µM, 2h): 0/5
Cessation of beating, number of observations/total well numbers (3 µM, 2h): 0/5
EAD, number of observations/total well numbers (3 µM, 2h): 0/5
FPD (field-potential duration), % change from baseline (3 µM, 2h): -3.6±1.9%
FPDc (field-potential duration corrected by beat-rate), % change from baseline (3 µM, 2h): -1.6±1.8%
Flat T-wave-like, number of observations/total well numbers (3 µM, 2h): 0/5
BR (beating rate), % change from baseline (3 µM, 24h): 20±3 %
Beating below threshold, number of observations/total well numbers (3 µM, 24h): 0/5
Cessation of beating, number of observations/total well numbers (3 µM, 24h): 0/5
EAD, number of observations/total well numbers (3 µM, 24h): 0/5
FPD (field-potential duration), % change from baseline (3 µM, 24h): -17±4.9 %
FPDc (field-potential duration corrected by beat-rate), % change from baseline (3 µM, 24h): -11.8±5.5 %
Flat T-wave-like, number of observations/total well numbers (3 µM, 24h): 0/5
BR (beating rate), % change from baseline (3 µM, 48h): 13±3%
Beating below threshold, number of observations/total well numbers (3 µM, 48h): 0/5
Cessation of beating, number of observations/total well numbers (3 µM, 48h): 0/5
EAD, number of observations/total well numbers (3 µM, 48h): 0/5
FPD (field-potential duration), % change from baseline (3 µM, 48h): -0.5±0%
FPDc (field-potential duration corrected by beat-rate), % change from baseline (3 µM, 48h): 2.6±0%
Flat T-wave-like, number of observations/total well numbers (3 µM, 48h): 4/5
BR (beating rate), % change from baseline (10 µM, 2h): 4±8%
Beating below threshold, number of observations/total well numbers (10 µM, 2h): 0/5
Cessation of beating, number of observations/total well numbers (10 µM, 2h): 0/5
EAD, number of observations/total well numbers (10 µM, 2h): 0/5
FPD (field-potential duration), % change from baseline (10 µM, 2h): -5.7±2.3%
FPDc (field-potential duration corrected by beat-rate), % change from baseline (10 µM, 2h): -4.4±2.8 %
Flat T-wave-like, number of observations/total well numbers (10 µM, 2h): 0/5
BR (beating rate), % change from baseline (10 µM, 24h): 30±4 %
Beating below threshold, number of observations/total well numbers (10 µM, 24h): 0/5
Cessation of beating, number of observations/total well numbers (10 µM, 24h): 0/5
EAD, number of observations/total well numbers (10 µM, 24h): 0/5
FPD (field-potential duration), % change from baseline (10 µM, 24h): -24.2±3.7 %
FPDc (field-potential duration corrected by beat-rate), % change from baseline (10 µM, 24h): -17.1±3.6 %
Flat T-wave-like, number of observations/total well numbers (10 µM, 24h): 1/5
BR (beating rate), % change from baseline (10 µM, 48h): 24±6 %
Beating below threshold, number of observations/total well numbers (10 µM, 48h): 0/5
Cessation of beating, number of observations/total well numbers (10 µM, 48h): 0/5
EAD, number of observations/total well numbers (10 µM, 48h): 0/5
FPD (field-potential duration), % change from baseline (10 µM, 48h): -10.6±0 %
FPDc (field-potential duration corrected by beat-rate), % change from baseline (10 µM, 48h): -2.4±0 %
Flat T-wave-like, number of observations/total well numbers (10 µM, 48h): 4/5
BR (beating rate), % change from baseline (10 µM, 72h): 32±14 %
Beating below threshold, number of observations/total well numbers (10 µM, 72h): 0/5
Cessation of beating, number of observations/total well numbers (10 µM, 72h): 0/5
EAD, number of observations/total well numbers (10 µM, 72h): 0/5
Flat T-wave-like, number of observations/total well numbers (10 µM, 72h): 5/5
BR (beating rate), % change from baseline (10 µM, 96h): 29±0 %
Beating below threshold, number of observations/total well numbers (10 µM, 96h): 1/5
Cessation of beating, number of observations/total well numbers (10 µM, 96h): 3/5
EAD, number of observations/total well numbers (10 µM, 96h): 0/5
Flat T-wave-like, number of observations/total well numbers (10 µM, 96h): 1/5
T-wave morphology (72 h and 96 h, two highest concentrations (10 and 1 µM)): flattening of the T-wave
